Source: patent US20100173835A1, “Peptides for Treatment of Obesity” (Novo Nordisk A/S, priority 2008, published 2010)
Values after ≈ are worked out from the molar mass of the structure shown. Like-named read-outs stand apart in the source and are kept apart here. Where a SMILES comes first, the peptide text is derived from it. Bridges are numbered along the chain shown (N, C = ends). Side-chain parts run from the residue outwards. [ ]: non-standard residue; d: D form. The star is where a group is joined. Palmitoyl(16-(5-tetrazolyl)) = O=C(CCCCCCCCCCCCCCCc1nnn[nH]1)*; Hyp = O=C(O)[C@@H]1C[C@@H](O)CN1; NTA = O=C(O)CN(CC(=O)O)CC(=O)*; Nle = CCCC[C@H](N)C(=O)O; Dap = NC[C@H](N)C(=O)O; AEEA = NCCOCCOCC(=O)O

Assays:
human MC4 receptor = biological target: T1, human MC4 receptor (Homo sapiens, UniProt P32245); experiment: Assay (V) Melanocortin Receptor 4 (MC4) binding assay; settings: 125NDP-α-MSH binding, BHK cell membranes; read-out: Assay (V) MC4 [Ki]
T1 construct: expressed in transfected cells
Method in brief: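 BHK membranes stably expressing human MC4 receptor were incubated with ^125NDP-α-MSH (≈79 pM final) and compound for 2 h at 25 °C, pH 7.0 HEPES buffer with HSA or ovalbumin. Filter-bound radioactivity was gamma counted. Binding curves were fitted by non-linear regression.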

MC1 receptor = biological target: T2, MC1 receptor (Homo sapiens, UniProt Q01726); experiment: Assay (IV) Melanocortin Receptor 1 (MC1) binding assay; settings: 125NDP-α-MSH binding, BHK cell membranes; read-out: Assay (IV) MC1 Ki
T2 construct: expressed in transfected cells
Method in brief: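 Competition binding used BHK cell membranes stably expressing MC1 (25 μg/ml) with 22 pM final ^125NDP-α-MSH in 25 mM HEPES pH 7.4, CaCl2, MgSO4, EDTA, 0.1% HSA (or ovalbumin), 0.005% Tween 20. After 90 min at 30° C., bound radioligand was filtered and counted, with binding curves fitted by non-linear regression.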

ad libitum fed rat model = experiment: Assay (I) efficacy testing on appetite, ad libitum fed rat model; format: in vivo
Experimental: Assay (I)—Experimental protocol for efficacy testing on appetite with MC4 analogues, using an ad libitum fed rat model. TAC:SPRD @mol rats or Wistar rats from M&B Breeding and Research Centre A/S, Denmark are used for the experiments. The rats have a body weight 200-250 g at the start of experiment. The rats arrive at least 10-14 days before start of experiment with a body weight of 180-200 g. Each dose of compound is tested in a group of 8 rats. […] When the animals arrive they are housed individually in a reversed light/dark phase (lights off 7:30 am, lights on 7:30 pm), meaning that lights are off during daytime and on during nighttime. […] During this period the animals are handled at least 3 times. The experiment is conducted in the rats' home cages. Immediately before dosing the rats are randomised to the various treatment groups (n 8) by body weight. They are dosed according to body weight at between 7:00 am and 7:45 am, with a 1-3 mg/kg solution administered intraperitoneally (ip), orally (po) or subcutaneously (sc). The time of dosing is recorded for each group. After dosing, the rats are returned to their home cages, where they then have access to food and water. […] At the end of the experimental session, the animals are euthanised. The individual data are recorded in Microsoft excel sheets. Outliers are excluded after applying the Grubbs statistical evaluation test for outliers, and the result is presented graphically using the GraphPad Prism program.

[1] = Solubility data of compounds in water over the pH range; format: physicochemical; settings: read-out: Conc (solubility in water)

T1 sequence (P32245 whole entry): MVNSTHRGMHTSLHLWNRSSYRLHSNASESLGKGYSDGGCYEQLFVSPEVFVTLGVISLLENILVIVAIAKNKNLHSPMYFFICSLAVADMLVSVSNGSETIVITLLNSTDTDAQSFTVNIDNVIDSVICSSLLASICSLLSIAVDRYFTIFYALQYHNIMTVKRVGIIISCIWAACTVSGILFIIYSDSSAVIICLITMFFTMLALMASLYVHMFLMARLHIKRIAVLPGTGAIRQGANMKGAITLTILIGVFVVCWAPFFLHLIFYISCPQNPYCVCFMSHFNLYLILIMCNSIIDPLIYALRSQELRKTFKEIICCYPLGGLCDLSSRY
T2 sequence (Q01726 whole entry): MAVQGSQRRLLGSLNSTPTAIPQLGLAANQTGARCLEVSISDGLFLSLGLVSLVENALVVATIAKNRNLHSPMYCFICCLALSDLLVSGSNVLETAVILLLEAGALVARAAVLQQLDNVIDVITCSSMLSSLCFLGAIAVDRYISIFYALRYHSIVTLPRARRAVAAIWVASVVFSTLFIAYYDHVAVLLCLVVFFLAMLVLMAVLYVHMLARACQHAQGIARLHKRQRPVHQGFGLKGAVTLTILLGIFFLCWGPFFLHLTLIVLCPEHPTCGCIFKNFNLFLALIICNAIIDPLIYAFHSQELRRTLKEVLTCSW

CCCC[C@H](NC(=O)[C@H](CCCCNC(=O)CN(CC(=O)O)CC(=O)O)NC(=O)[C@H](Cc1c[nH]cn1)NC(=O)[C@H](CCC(N)=O)NC(=O)[C@H](CO)NC(=O)CNC(=O)COCCOCCNC(=O)CCCCCCCCCCCCCCCc1nnn[nH]1)C(=O)N[C@H]1CCC(=O)NCCCC[C@@H](C(N)=O)NC(=O)[C@H](Cc2c[nH]c3ccccc23)NC(=O)[C@H](CCCNC(=N)N)NC(=O)[C@@H](Cc2ccccc2)NC(=O)[C@@H]2C[C@@H](O)CN2C1=O [Example 1, (2-{2-[16-(Tetrazol-5-yl)hexadecanoylamino]ethoxy}ethoxy)acetyl-Gly-Ser-Gln-His-Lys(BCMA)-Nle-c[Glu-Hyp-D-Phe-Arg-Trp-Lys]-NH2] ({Palmitoyl(16-(5-tetrazolyl))-AEEA}-GSQHK(NTA)[Nle]E[Hyp][dF]RWK-NH2; lactam 7-12)
Ki (human MC4 receptor): 0.4 nM
Ki (MC1 receptor): > 10000 nM
Food consumption (% of vehicle) 24 h (ad libitum fed rat model; dosing 3 mg/kg): 65 % of vehicle
Food consumption (% of vehicle) 48 h (ad libitum fed rat model; dosing 3 mg/kg): 72 % of vehicle

CCCC[C@H](NC(=O)[C@H](CNC(=O)[C@H](Cc1c[nH]cn1)NC(=O)[C@H](CCC(N)=O)NC(=O)[C@H](CO)NC(=O)CNC(=O)COCCOCCNC(=O)CCCCCCCCCCCCCCCc1nnn[nH]1)NC(=O)CN(CC(=O)O)CC(=O)O)C(=O)N[C@H]1CCC(=O)NCCCC[C@@H](C(N)=O)NC(=O)[C@H](Cc2c[nH]c3ccccc23)NC(=O)[C@H](CCCNC(=N)N)NC(=O)[C@@H](Cc2ccccc2)NC(=O)[C@@H]2C[C@@H](O)CN2C1=O [Example 2, (2-{2-[16-(Tetrazol-5-yl)hexadecanoylamino]ethoxy}ethoxy)acetyl-Gly-Ser-Gln-His-β-Dap(BCMA)-Nle-c[Glu-Hyp-D-Phe-Arg-Trp-Lys]-NH2] ({NTA}-[Dap]([His-Gln-Ser-Gly-AEEA-Palmitoyl(16-(5-tetrazolyl))])[Nle]E[Hyp][dF]RWK-NH2; lactam 3-8)
solubility at 3 days ([1]; pH 3.02, pH 3.02): 320 µM (≈ 670 µg/mL)
solubility at 3 days ([1]; pH 3.84, pH 3.84): 421 µM (≈ 881 µg/mL)
solubility at 3 days ([1]; pH 4.3, pH 4.3): 216 µM (≈ 452 µg/mL)
solubility at 3 days ([1]; pH 4.64, pH 4.64): 49 µM (≈ 103 µg/mL)
solubility at 3 days ([1]; pH 5.22, pH 5.22): 13 µM (≈ 27.2 µg/mL)
solubility at 3 days ([1]; pH 6.55, pH 6.55): 14 µM (≈ 29.3 µg/mL)
solubility at 3 days ([1]; pH 7.2, pH 7.2): 122 µM (≈ 255 µg/mL)
solubility at 3 days ([1]; pH 7.36, pH 7.36): 251 µM (≈ 525 µg/mL)
solubility at 3 days ([1]; pH 7.53, pH 7.53): 320 µM (≈ 670 µg/mL)
solubility at 3 days ([1]; pH 7.81, pH 7.81): 77 µM (≈ 161 µg/mL)
Ki (human MC4 receptor): 3.43 nM
Ki (MC1 receptor): 5570 nM
Food consumption (% of vehicle) 24 h (ad libitum fed rat model; dosing 1 mg/kg): 60 % of vehicle
Food consumption (% of vehicle) 48 h (ad libitum fed rat model; dosing 1 mg/kg): 71 % of vehicle

CCCC[C@H](NC(=O)[C@H](CCCCNC(=O)CN(CC(=O)O)CC(=O)O)NC(=O)[C@H](CO)NC(=O)[C@H](CCC(N)=O)NC(=O)[C@H](CO)NC(=O)CNC(=O)COCCOCCNC(=O)CCCCCCCCCCCCCCCc1nnn[nH]1)C(=O)N[C@H]1CCC(=O)NCCCC[C@@H](C(N)=O)NC(=O)[C@H](Cc2c[nH]c3ccccc23)NC(=O)[C@H](CCCNC(=N)N)NC(=O)[C@@H](Cc2ccccc2)NC(=O)[C@@H]2C[C@@H](O)CN2C1=O [Example 15, (2-{2-[16-(Tetrazol-5-yl)hexadecanoylamino]ethoxy}ethoxy)acetyl-Gly-Ser-Gln-Ser-Lys(BCMA)-Nle-c[Glu-Hyp-D-Phe-Arg-Trp-Lys]-NH2] ({Palmitoyl(16-(5-tetrazolyl))-AEEA}-GSQSK(NTA)[Nle]E[Hyp][dF]RWK-NH2; lactam 7-12)
Ki (human MC4 receptor): 3.15 nM
Ki (MC1 receptor): > 10000 nM
Food consumption (% of vehicle) 24 h (ad libitum fed rat model; dosing 1 mg/kg): 74 % of vehicle
Food consumption (% of vehicle) 48 h (ad libitum fed rat model; dosing 1 mg/kg): 85 % of vehicle
